# Experimental data taken from patent publication EP0565593B1, “REDUCING PESTICIDAL INTERACTIONS IN CROPS” (priority 1990, dated 1992).
# “And” between values parts separate entries of the source, which are not always exact repeats. Identical values can stand only once.
# Legend:
# Format in all cases: in vivo
# grain sorghum (GRSO) = assay: Multi-crop greenhouse test, soil-applied (Examples 65, 66; Tables 64, 65); design: inhibition: dose or concentration left out as unconfirmed; details: Sorghum; for inhibition at 18 g/ha: Herb. No. 1 0.018 Kg/Ha alone; for inhibition at 70 g/ha: Herb. No. 1 0.07 Kg/Ha alone; for inhibition at 280 g/ha: Herb. No. 1 0.28 Kg/Ha alone
# Outline: (§1)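 Dupo silt loam pans, seeds 1.3 cm deep; safener (acetone) + COUNTER 15G granules mixed into cover soil; subirrigated. MON-12000 run: herbicide POE day 6, light overhead irrigation days 4–7, injury scored 10 d later. XRD-498 run: all three components applied together to covers. Mean of 2 reps.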
# soybean (SOBE) = assay: as above; design: inhibition: dose or concentration left out as unconfirmed; details: Glycine max; for inhibition at 18 g/ha: Herb. No. 1 0.018 Kg/Ha alone; for inhibition at 70 g/ha: Herb. No. 1 0.07 Kg/Ha alone; for inhibition at 280 g/ha: Herb. No. 1 0.28 Kg/Ha alone
# Outline: as §1
# wheat (WHEA) = assay: as above; design: inhibition: dose or concentration left out as unconfirmed; details: Triticum aestivum; for inhibition at 18 g/ha: Herb. No. 1 0.018 Kg/Ha alone; for inhibition at 70 g/ha: Herb. No. 1 0.07 Kg/Ha alone; for inhibition at 280 g/ha: Herb. No. 1 0.28 Kg/Ha alone
# Outline: as §1
# Giant foxtail (GIFT) = assay: whole plant or invertebrate; details: for inhibition at 140 g/ha: Setaria faberi, iv, 312 h
# [1] = Table 64, Herb. No. 1 0.018 Kg/Ha + Biocide No. 1 8.96 Kg/Ha
# [2] = Table 64, Herb. No. 1 0.07 Kg/Ha + Biocide No. 1 8.96 Kg/Ha
# [3] = Table 64, Herb. No. 1 0.28 Kg/Ha + Biocide No. 1 8.96 Kg/Ha
# [4] = Table 65, Herb. No. 1 0.018 Kg/Ha + Biocide No. 1 8.96 Kg/Ha
# [5] = Table 65, Herb. No. 1 0.07 Kg/Ha + Biocide No. 1 8.96 Kg/Ha
# [6] = Table 65, Herb. No. 1 0.28 Kg/Ha + Biocide No. 1 8.96 Kg/Ha
structure (smiles),measurement,setting,value
"COC(=O)c1c(Cl)nn(C)c1S(=O)(=O)NC(=O)Nc1nc(OC)cc(OC)n1 [Herbicide No. 1, N-[(4,6-dimethoxypyrimidin-2-yl)aminocarbonyl]-3-chloro-4-methoxycarbonyl-5-sulfonamide, reference compound]",inhibition,grain sorghum (GRSO); [1],0%
same,inhibition at 18 g/ha,grain sorghum (GRSO); Table 64,0%
same,inhibition,grain sorghum (GRSO); [2],15%
same,inhibition at 70 g/ha,grain sorghum (GRSO); Table 64,0%
same,inhibition,grain sorghum (GRSO); [3],15%
same,inhibition at 280 g/ha,grain sorghum (GRSO); Table 64,20%
same,inhibition,grain sorghum (GRSO); [4],15%
same,inhibition at 18 g/ha,grain sorghum (GRSO); Table 65,0%
same,inhibition,grain sorghum (GRSO); [5],20%
same,inhibition at 70 g/ha,grain sorghum (GRSO); Table 65,40%
same,inhibition,grain sorghum (GRSO); [6],85%
same,inhibition at 280 g/ha,grain sorghum (GRSO); Table 65,80%
same,inhibition,soybean (SOBE); [1],5%
same,inhibition at 18 g/ha,soybean (SOBE); Table 64,15%
same,inhibition,soybean (SOBE); [2],70%
same,inhibition at 70 g/ha,soybean (SOBE); Table 64,45%
same,inhibition,soybean (SOBE); [3],75%
same,inhibition at 280 g/ha,soybean (SOBE); Table 64,70%
same,inhibition,soybean (SOBE); [4],0%
same,inhibition at 18 g/ha,soybean (SOBE); Table 65,0%
same,inhibition,soybean (SOBE); [5],0%
same,inhibition at 70 g/ha,soybean (SOBE); Table 65,0%
same,inhibition,soybean (SOBE); [6],15%
same,inhibition at 280 g/ha,soybean (SOBE); Table 65,20%
same,inhibition,wheat (WHEA); [1],0%
same,inhibition at 18 g/ha,wheat (WHEA); Table 64,0%
same,inhibition,wheat (WHEA); [2],0%
same,inhibition at 70 g/ha,wheat (WHEA); Table 64,0%
same,inhibition,wheat (WHEA); [3],35%
same,inhibition at 280 g/ha,wheat (WHEA); Table 64,0%
same,inhibition,wheat (WHEA); [4],0%
same,inhibition at 18 g/ha,wheat (WHEA); Table 65,0%
same,inhibition,wheat (WHEA); [5],0%
same,inhibition at 70 g/ha,wheat (WHEA); Table 65,0%
same,inhibition,wheat (WHEA); [6],85%
same,inhibition at 280 g/ha,wheat (WHEA); Table 65,0%
same,% Inhibition GIFT,"Giant foxtail (GIFT); Herbicide No. 1 0.0175 Kg/Ha PPI alone, Table 19",15%
same,% Inhibition GIFT,"Giant foxtail (GIFT); Herbicide No. 1 0.0175 Kg/Ha PPI alone, Table 20",0%
same,% Inhibition GIFT,"Giant foxtail (GIFT); Herbicide No. 1 0.0175 Kg/Ha PPI alone, Table 21",0%
same,% Inhibition GIFT,"Giant foxtail (GIFT); Herbicide No. 1 0.0175 Kg/Ha PPI alone, Table 22",0%
same,inhibition at 140 g/ha,"Giant foxtail (GIFT); Herb. No. 1 0.14 kg/Ha alone, PPI, 13 days after planting",30%
same,inhibition at 140 g/ha,"Giant foxtail (GIFT); Table 51, Herbicide No. 1 0.14 Kg/Ha, where applied Biocide No. 8 8.96 kg/Ha and antidote 4.48 Kg/Ha, all PPI, observed 13 days after treatment",60%
same,% Inhibition GIFT,Giant foxtail (GIFT); in vivo,60% and 65% and 80%
